The text below walks through data of patent US11858905B1, “Cathepsin L inhibitors” (priority 2023, dated 2024).

For assay [1], the target named is human CatL (Homo sapiens (Human), UniProt P07711). Briefly: Human Cathepsin L (CatL) enzymatic assay. The assay is classed as biochemical. Here is the method:
Human Cathepsin L (CatL) Enzymatic Assay
60 μL of the compounds were added to 384-well dilution plate. The compound solution was diluted for 1:3 in succession in DMSO for each column for 10 pts. 0.05 μL diluted compound solution was added in each row to 384 assay plates (Corning 4514) using Echo (LABCYTE 655), each column containing 2 replicates. 5 μL working solution of human CatL enzyme (Abcam #ab81780) was added to 384-well assay plate, centrifuge 1000 rpm for 1 min. The mixture was incubated at […] for 15 min, then add 5 μL working solution of CatL substrate (Genscript #C7360HB140_5) to initiate the reaction (CatL: 0.05 nM, Substrate: 500 nM). Incubate at […] for 30 min. Reading Ex370 nm and Em460 nm fluorescence signals with BMG CLARIO Star Plusaucu. Percent inhibition for each compound was calculated and IC50 (half maximal inhibitory concentration) was fitted from non-linear regression by XLfit 5.5.0.

The subject of assay [2] is SARS-CoV-2 PsVs. Nature of the assay: microbe, parasite or virus in culture. The conditions noted are these: for activity at 0.5 µM / activity at 5 µM: Severe acute respiratory syndrome coronavirus 2, Vero C1008, 24 h; for activity at 0.5 µM: read-out: % Infection rate at 500 nM; for activity at 5 µM: read-out: % Infection rate at 5 uM. The assay is classed as cell-based.

The mark [3] stands for this setting: CatL 0.05 nM, substrate 500 nM, pH 5.5, read-out: Enzymatic inhibition IC50.
Where [4] appears, read: summary of Table 2, read-out: IC50 for inhibiting CatL.

For orientation: IC50 means the concentration needed to halve the response being measured.

Molecules are shown by their SMILES. Read-outs that look alike come from different tables or passages of the source. Bounds are passed on as bounds.

human CatL, sequence (P07711 whole entry, looked up): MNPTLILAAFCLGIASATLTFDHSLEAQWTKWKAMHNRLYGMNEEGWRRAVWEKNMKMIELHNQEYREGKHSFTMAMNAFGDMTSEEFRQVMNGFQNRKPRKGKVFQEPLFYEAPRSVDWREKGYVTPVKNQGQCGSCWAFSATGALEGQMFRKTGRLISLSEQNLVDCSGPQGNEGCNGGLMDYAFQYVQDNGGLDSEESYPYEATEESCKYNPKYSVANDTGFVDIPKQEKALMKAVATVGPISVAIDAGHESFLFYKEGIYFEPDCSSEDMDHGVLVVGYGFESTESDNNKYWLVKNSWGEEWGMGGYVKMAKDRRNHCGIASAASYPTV

With `N#CC1(NC(=O)[C@H](Cc2nc3ccccc3s2)NC(=O)c2cccc(Cl)c2)CC1` [Compound 31, (S)—N-(3-(benzo[d]thiazol-2-yl)-1-((1-cyanocyclopropyl)amino)-1-oxopropan-2-yl)-3-chlorobenzamide], in assay [1] (setting [3]), the half-inhibitory concentration (IC50) was 11.7 nM. Besides, the IC50 in assay [1] (setting [4]) was under 50 nM. Moreover, in assay [2], the activity at 0.5 µM came out at 67% and the activity at 5 µM came out at 10%.

For the compound `Cn1c(C[C@H](NC(=O)c2cccc(Cl)c2)C(=O)NC2(C#N)CC2)nc2ccccc21` [Compound 32, (S)-3-chloro-N-(1-((1-cyanocyclopropyl)amino)-3-(1-methyl-1 H-benzo[d]imidazol-2-yl)-1-oxopropan-2-yl)benzamide], the IC50 in assay [1] (setting [3]) was over 1000 nM. Also, in assay [2], the activity at 0.5 µM came out at 101% and the activity at 5 µM worked out at 95%.

As for `CC(C)(C)c1cc(C(=O)N[C@@H](Cc2nc3ccc(Br)cc3o2)C(=O)NC2(C#N)CC2)n(C2CC2)n1` [Compound 33, (S)—N-(3-(6-bromobenzo[d]oxazol-2-yl)-1-((1-cyanocyclopropyl)amino)-1-oxopropan-2-yl)-3-(tert-butyl)-1-cyclopropyl-1H-pyrazole-5-carboxamide], in assay [1] (setting [3]), the IC50 was 2.9 nM. In addition, in assay [2], the activity at 0.5 µM worked out at 39% and the activity at 5 µM came to 5.9%.

Turning to `CC(C)(C)c1cc(C(=O)N[C@@H](Cc2nc3ccc(-c4ccc(N)nc4)cc3o2)C(=O)NC2(C#N)CC2)n(C2CC2)n1` [Compound 34, (S)—N-(3-(6-(6-aminopyridin-3-yl)benzo[d]oxazol-2-yl)-1-((1-cyanocyclopropyl)amino)-1-oxopropan-2-yl)-3-(tert-butyl)-1-cyclopropyl-1H-pyrazole-5-carboxamide], the concentration for half-maximal inhibition (IC50) in assay [1] (setting [3]) is 0.6 nM. For the same compound, in assay [2], the activity at 0.5 µM came to 41% and the activity at 5 µM amounted to 0.9%.

For the compound `Cc1cc(-c2ccc3nc(C[C@H](NC(=O)c4cc(C5(C)CC5)nn4C4CC4)C(=O)NCC#N)oc3c2)ccn1` [Compound 35, (S)—N-(1-((cyanomethyl)amino)-3-(6-(2-methylpyridin-4-yl)benzo[d]oxazol-2-yl)-1-oxopropan-2-yl)-1-cyclopropyl-3-(1-methylcyclopropyl)-1H-pyrazole-5-carboxamide], in assay [1] (setting [3]), the IC50 amounted to 1.1 nM. Further, in assay [2], the activity at 0.5 µM is 40% and the activity at 5 µM was found to be 3.1%.

With `Cc1cc(-c2ccc3nc(C[C@H](NS(=O)(=O)c4cccc(Br)c4)C(=O)NCC#N)oc3c2)ccn1` [Compound 36, (S)-2-((3-bromophenyl)sulfonamido)-N-(cyanomethyl)-3-(6-(2-methylpyridin-4-yl)benzo[d]oxazol-2-yl)propanamide], in assay [1] (setting [3]), the 50% inhibitory concentration (IC50) is 79.3 nM. Also, in assay [2], the activity at 0.5 µM was found to be 110% and the activity at 5 µM is 125%.

As for `Cc1cc(-c2ccc3nc(C[C@H](NS(=O)(=O)c4cccc(Cl)c4)C(=O)NCC#N)oc3c2)ccn1` [Compound 37, (S)-2-((3-chlorophenyl)sulfonamido)-N-(cyanomethyl)-3-(6-(2-methylpyridin-4-yl)benzo[d]oxazol-2-yl)propanamide], the 50% inhibitory concentration (IC50) in assay [1] (setting [3]) was 125 nM. In assay [2], the activity at 0.5 µM was 96% and the activity at 5 µM turned out to be 104%.

With `Cc1cc(-c2ccc3nc(C[C@H](NC(=O)c4cc(C5(C)CC5)nn4C4CC4)C(=O)NC4(C#N)CC4)oc3c2)ccn1` [Compound 38, (S)—N-(1-((1-cyanocyclopropyl)amino)-3-(6-(2-methylpyridin-4-yl)benzo[d]oxazol-2-yl)-1-oxopropan-2-yl)-1-cyclopropyl-3-(1-methylcyclopropyl)-1H-pyrazole-5-carboxamide], in assay [1] (setting [3]), the IC50 turned out to be 1.7 nM. Moreover, in assay [2], the activity at 0.5 µM came to 34% and the activity at 5 µM came out at 1%.

On to `CN(C)c1ccc(-c2ccc3nc(C[C@H](NC(=O)c4cc(C5(C)CC5)nn4C4CC4)C(=O)NC4(C#N)CC4)oc3c2)cn1` [Compound 39, (2S)—N-(1-cyanocyclopropyl)-2-{[2-cyclopropyl-5-(1-methylcyclopropyl)pyrazol-3-yl]formamido}-3-{6-[6-(dimethylamino)pyridin-3-yl]-1,3-benzoxazol-2-yl}propanamide], for which, in assay [1] (setting [3]), the half-inhibitory concentration (IC50) worked out at 1.6 nM. Also, in assay [2], the activity at 0.5 µM turned out to be 32% and the activity at 5 µM came out at 4%.

On to `CC1(c2cc(C(=O)N[C@@H](Cc3nc4ccc(C5=CCN(CC(F)F)CC5)cc4o3)C(=O)NC3(C#N)CC3)n(C3CC3)n2)CC1` [Compound 40, (S)—N-(1-((1-cyanocyclopropyl)amino)-3-(6-(1-(2,2-difluoroethyl)-1,2,3,6-tetrahydropyridin-4-yl)benzo[d]oxazol-2-yl)-1-oxopropan-2-yl)-1-cyclopropyl-3-(1-methylcyclopropyl)-1H-pyrazole-5-carboxamide], for which, in assay [1] (setting [3]), the IC50 was 1.5 nM. For the same compound, in assay [2], the activity at 0.5 µM came to 57% and the activity at 5 µM was 12%.

As for `CC(=O)Nc1ccc(-c2ccc3nc(C[C@H](NC(=O)c4cc(C5(C)CC5)nn4C4CC4)C(=O)NC4(C#N)CC4)oc3c2)cn1` [Compound 41, (2S)—N-(1-cyanocyclopropyl)-2-{[2-cyclopropyl-5-(1-methylcyclopropyl)pyrazol-3-yl]formamido}-3-[6-(6-acetamidopyridin-3-yl)-1,3-benzoxazol-2-yl]propanamide], the IC50 in assay [1] (setting [3]) was determined as 5.3 nM. In assay [2], the activity at 0.5 µM was 90% and the activity at 5 µM came to 57.7%.

As to `Cc1ccc(-c2ccc3nc(C[C@H](NC(=O)c4cc(C5(C)CC5)nn4C4CC4)C(=O)NC4(C#N)CC4)oc3c2)cn1` [Compound 42, (S)—N-(1-((1-cyanocyclopropyl)amino)-3-(6-(6-methylpyridin-3-yl)benzo[d]oxazol-2-yl)-1-oxopropan-2-yl)-1-cyclopropyl-3-(1-methylcyclopropyl)-1H-pyrazole-5-carboxamide], the IC50 in assay [1] (setting [3]) came to 4.5 nM. In addition, in assay [2], the activity at 0.5 µM was determined as 34% and the activity at 5 µM worked out at 5.6%.

`CCNc1ccc(-c2ccc3nc(C[C@H](NC(=O)c4cc(C5(C)CC5)nn4C4CC4)C(=O)NC4(C#N)CC4)oc3c2)cn1` [Compound 43, (S)—N-(1-((1-cyanocyclopropyl)amino)-3-(6-(6-(ethylamino)pyridin-3-yl)benzo[d]oxazol-2-yl)-1-oxopropan-2-yl)-1-cyclopropyl-3-(1-methylcyclopropyl)-1H-pyrazole-5-carboxamide]: the IC50 in assay [1] (setting [3]) came to 0.8 nM. For the same compound, in assay [2], the activity at 0.5 µM was determined as 18% and the activity at 5 µM turned out to be 0.8%.

In the case of `Cc1cccc(-c2ccc3nc(C[C@H](NC(=O)c4cc(C5(C)CC5)nn4C4CC4)C(=O)NC4(C#N)CC4)oc3c2)n1` [Compound 44, (S)—N-(1-((1-cyanocyclopropyl)amino)-3-(6-(6-methylpyridin-2-yl)benzo[d]oxazol-2-yl)-1-oxopropan-2-yl)-1-cyclopropyl-3-(1-methylcyclopropyl)-1H-pyrazole-5-carboxamide], in assay [1] (setting [3]), the IC50 was found to be 16.5 nM. Besides, the IC50 in assay [1] (setting [4]) is under 50 nM. Also, in assay [2], the activity at 0.5 µM is 82% and the activity at 5 µM turned out to be 55.5%.

For `COCCN1CC=C(c2ccc3nc(C[C@H](NC(=O)c4cc(C(C)(C)C)nn4C4CC4)C(=O)NCC#N)oc3c2)CC1` [Compound 45, (2S)-2-[(5-tert-butyl-2-cyclopropylpyrazol-3-yl)formamido]-N-(cyanomethyl)-3-{6-[1-(2-methoxyethyl)-3,6-dihydro-2H-pyridin-4-yl]-1,3-benzoxazol-2-yl}propanamide], in assay [1] (setting [3]), the half-maximal inhibitory concentration (IC50) was 2.5 nM. In assay [2], the “protection of cells from pseudovirus infection at 500 nM” value is on record as “nearly full protection”, the activity at 0.5 µM worked out at 7% and the activity at 5 µM worked out at 0.02%.

As for `COCCN1CC=C(c2ccc3nc(C[C@H](NC(=O)c4cc(C5(C)CC5)nn4C4CC4)C(=O)NC4(C#N)CC4)oc3c2)CC1` [Compound 46, (2S)—N-(1-cyanocyclopropyl)-2-{[2-cyclopropyl-5-(1-methylcyclopropyl)pyrazol-3-yl]formamido}-3-{6-[1-(2-methoxyethyl)-3,6-dihydro-2H-pyridin-4-yl]-1,3-benzoxazol-2-yl}propanamide], the half-inhibitory concentration (IC50) in assay [1] (setting [3]) turned out to be 1 nM. Further, in assay [2], the “protection of cells from pseudovirus infection at 500 nM” value was “nearly full protection”, the activity at 0.5 µM turned out to be 7% and the activity at 5 µM stood at 0.08%.

`CC1(c2cc(C(=O)N[C@@H](Cc3nc4ccc(-c5ccnc(C(F)F)c5)cc4o3)C(=O)NC3(C#N)CC3)n(C3CC3)n2)CC1` [Compound 47, (S)—N-(1-((1-cyanocyclopropyl)amino)-3-(6-(2-(difluoromethyl)pyridin-4-yl)benzo[d]oxazol-2-yl)-1-oxopropan-2-yl)-1-cyclopropyl-3-(1-methylcyclopropyl)-1H-pyrazole-5-carboxamide]: the IC50 in assay [1] (setting [3]) was 6.6 nM. Also, in assay [2], the activity at 0.5 µM amounted to 56% and the activity at 5 µM turned out to be 15.9%.

On to `CC1(c2cc(C(=O)N[C@@H](Cc3nc4ccc(-c5ccnc(C6CC6)c5)cc4o3)C(=O)NC3(C#N)CC3)n(C3CC3)n2)CC1` [Compound 48, (S)—N-(1-((1-cyanocyclopropyl)amino)-3-(6-(2-cyclopropylpyridin-4-yl)benzo[d]oxazol-2-yl)-1-oxopropan-2-yl)-1-cyclopropyl-3-(1-methylcyclopropyl)-1H-pyrazole-5-carboxamide], for which the half-inhibitory concentration (IC50) in assay [1] (setting [3]) is 3.5 nM. Also, in assay [2], the activity at 0.5 µM is 63% and the activity at 5 µM amounted to 22.4%.
